Patent publication US9617310B2 (priority 2013, dated 2017)

Key:
NS3 genotype 1b protease = biological target: T1, NS3 genotype 1b protease (Hepatitis C virus genotype 1b, UniProt Q9WMX2, E1202G); test: Ki determination, NS3 protease genotype 1b (fluorogenic depsipeptide substrate); type: biochemical; conditions: NS3 protease domain genotype 1b, NS4A peptide
T1 construct: Purified NS3 protease domain (amino acids 1-181) of the genotype 1b and 3a virus were generated as above; K3 hexahistidine tag (N); rTEV protease cleavage site (N); made in house; host or cells: E. coli BL21AI
Excerpt: (§1) Ki Determination for Genotypes 1b and 3a NS3 Protease.
(§2) Purified NS3 protease domain (amino acids 1-181) of the genotype 1b and 3a virus were generated as above. The internally quenched fluorogenic depsipeptide substrate Ac-DED(Edans)-EEAbuψ[COO]ASK(Dabcyl)-NH2 and a synthetic peptide containing the hydrophobic core residues of the NS4A protein cofactor ([…]; NS4A peptide) were obtained from Anaspec, Inc. (San Jose, Calif.). Other chemicals and biochemicals were of reagent grade or better and were purchased from standard suppliers.
(§3) Reactions were run at room temperature in buffer consisting of 50 mM HEPES, 40% glycerol, 0.05% Triton X-100, 10 mM DTT, and 10% DMSO. The final assay solutions contained 50 pM NS3 genotype 1b protease or 200 pM genotype 3a protease, 20 μM NS4A peptide, and 4 μM substrate (genotype 1b) or 2 μM substrate (genotype 3a). Inhibitor concentrations varied from 100 nM to 5 pM in 3-fold dilutions, and no-inhibitor controls were included.
(§4) Compound dilutions were made in DMSO at 20× final concentration. Reaction mixtures were prepared in 96-well assay plates. A solution of enzyme and NS4A peptide in assay buffer (25 μL volume with both reagents at 4× final concentration) was mixed with 45 μL assay buffer and 5 μL of either inhibitor or DMSO, and pre-incubated at room temperature for 1 hour. The reaction was started by addition of 25 μL substrate solution at 4× final concentration. Plates were mixed vigorously for 5-10 seconds and reactions were allowed to proceed for 90 minutes. Fluorescence was measured every 30 s between 90 and 120 minutes reaction time using a Tecan InfiniTe M1000 or PerkinElmer Envision multimode plate reader with an excitation wavelength of 340 nm and an emission wavelength of 490 nm.
(§5) Rates were calculated from the progress curves at steady state, in the time frame of 90-120 minutes after addition of substrate. To determine the Ki, rates were plotted as a function of inhibitor concentration, and the data were fit with equation 1 (Morrison, J. F., Biochimica et Biophysica Acta 1969, 185, 269-286) to calculate Ki^app using GraphPad Prism 5. Active fraction of enzyme was determined by active site titration with known potent inhibitors. Ki was calculated from Ki^app/(1+[[S]/Km]).

[1] = system: genotype 1b stable HCV replicon (Con1) in Huh-7-derived cells; test: Stable subgenomic HCV replicon, genotype 1b, Renilla luciferase; type: cell-based; conditions: Hepatitis C virus, stable replicon genotype 1b, 72 h, read-out: EC50 1B RLUC
Experimental: Antiviral potency (EC50) was determined in both stable subgenomic HCV replicon cell lines and transient-transfected HCV replicon cells. The term half maximal effective concentration (EC50) refers to the concentration of a drug which induces a response halfway between the baseline and maximum after the exposure time specified below.
Stable subgenomic HCV replicons for genotype 1a, 1b, 2a, 3a, and 4a were established in Huh-7-derived cells as described by Lohmann et al (Lohmann V, Korner F, Koch J, et al Replication of subgenomic hepatitis C virus RNAs in a hepatoma cell line. Science 1999; 285:119-3). Each stable cell line contains a bicistronic HCV replicon that encodes a humanized Renilla luciferase (hRLuc) reporter gene fused to a selectable neomycin-resistance gene, followed by an EMCV IRES and the NS3-NS5B coding region of HCV. […] Luciferase activity was measured as a marker for intracellular HCV replication levels.
The genotype 1a stable replicon was derived from the H77 HCV strain and contained adaptive mutations P1496L and S2204I. The genotype 1b stable replicon was derived from the Con1 HCV strain and contained adaptive mutations E1202G, T1280I, and K1846T. […] The genotype 3a stable replicon was derived from the S52 HCV strain and contained adaptive mutations P1121 L, A1198T and S2210I (equivalent to S2204I in genotype 1). The genotype 4a stable replicon was derived from the ED43 HCV strain and contained adaptive mutations Q1691R and S2204I. All replicon cell lines were propagated in Huh-7-derived cells and maintained in Dulbecco's modified Eagle's Medium (DMEM) supplemented with 10% fetal bovine serum (FBS) and 0.5 mg/ml G418.
To perform EC50 assays, cells from each HCV replicon were dispensed into 384-well plates. Compounds were dissolved in DMSO at a concentration of 10 mM and diluted in DMSO using an automated pipetting instrument. Three-fold serially diluted compounds were directly added to the cells using an automated instrument. DMSO was used as a negative (solvent; no inhibition) control, and a combination of three HCV inhibitors including a protease inhibitor; an NS5A inhibitor and a nucleoside inhibitor was used at concentrations >100×EC50 as a positive control (100% inhibition). Seventy-two hours later, cells were lysed and Renilla luciferase activity were quantified as recommended by the manufacturer (Promega-Madison, Wis.). Non-linear regression was performed to calculate […], values.

[2] = system: genotype 3a transient HCV replicon (S52) in Huh-7-derived cells; test: Transient-transfected HCV replicon, genotype 3a wild type; type: cell-based; conditions: Hepatitis C virus; transient-transfected replicon genotype 3a wild type, 72 h; read-out: EC50 3A WT
NS3 genotype 3a protease = biological target: T2, NS3 genotype 3a protease (UniProt Q81258); test: Ki determination, NS3 protease genotype 3a (fluorogenic depsipeptide substrate); type: biochemical, hepatitis C virus; conditions: NS3 protease domain genotype 3a, NS4A peptide
T2 construct: Purified NS3 protease domain (amino acids 1-181) of the genotype 1b and 3a virus were generated as above; fused on or other part: N-terminal hexahistidine tag with an rTEV protease cleavage site (vector p28-N6H-Tev-NS3(181)3)
T2 sequence (Q81258 1033-1663): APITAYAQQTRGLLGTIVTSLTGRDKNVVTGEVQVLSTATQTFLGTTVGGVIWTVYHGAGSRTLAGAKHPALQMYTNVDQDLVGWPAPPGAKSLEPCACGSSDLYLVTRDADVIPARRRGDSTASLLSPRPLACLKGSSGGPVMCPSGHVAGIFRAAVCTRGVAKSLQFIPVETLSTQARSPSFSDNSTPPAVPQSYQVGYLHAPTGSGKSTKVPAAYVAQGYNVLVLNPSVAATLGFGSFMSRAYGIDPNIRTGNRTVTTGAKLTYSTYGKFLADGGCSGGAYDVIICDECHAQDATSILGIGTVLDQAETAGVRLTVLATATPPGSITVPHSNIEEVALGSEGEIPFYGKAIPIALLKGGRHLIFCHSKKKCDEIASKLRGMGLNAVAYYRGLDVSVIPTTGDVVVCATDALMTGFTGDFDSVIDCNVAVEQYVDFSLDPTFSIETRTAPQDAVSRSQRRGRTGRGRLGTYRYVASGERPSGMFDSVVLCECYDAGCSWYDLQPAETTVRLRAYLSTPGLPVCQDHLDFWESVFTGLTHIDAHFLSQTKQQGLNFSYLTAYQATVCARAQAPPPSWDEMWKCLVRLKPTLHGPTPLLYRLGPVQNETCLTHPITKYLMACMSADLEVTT
Excerpt: as §1, §2, §3, §4, §5

T1 sequence (Q9WMX2 1027-1207 E1202G, other chains not shown): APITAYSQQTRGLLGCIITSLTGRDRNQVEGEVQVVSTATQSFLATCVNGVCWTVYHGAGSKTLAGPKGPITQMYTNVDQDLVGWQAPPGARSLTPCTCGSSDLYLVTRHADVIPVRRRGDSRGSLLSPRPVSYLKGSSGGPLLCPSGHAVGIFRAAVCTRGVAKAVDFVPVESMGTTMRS

## COc1ccc2nc3c(nc2c1)O[C@@H]1C[C@@H](C(=O)N[C@]2(C(=O)NS(=O)(=O)C4CC4)C[C@H]2C(F)F)N(C1)C(=O)[C@H](C(C)(C)C)NC(=O)O[C@@H]1C[C@@H]2C[C@@H]2[C@H]1CCCCC3(F)F (racemic) [Example 9, (1aS,2aR,6S,9S,11R,23aR,23bS)-6-tert-butyl-N-[(1R,2R)-1-[(cyclopropylsulfonyl)carbamoyl]-2-(difluoromethyl)cyclopropyl]-19,19-difluoro-15-methoxy-4,7-dioxo-1a,2,2a,4,5,6,7,10,11,19,20,21,22,23,23a,23b-hexadecahydro-1H,9H-8,11-methanocyclopropa[4′,5′]cyclopenta[1′,2′:18,19][1,10,3,6]dioxadiazacyclononadecino[11,12-b]quinoxaline-9-carboxamide]
NS3 genotype 1b protease
  Ki: 0.02 nM
[1]
  EC50: 1.5 nM
[2]
  EC50: 2.5 nM
NS3 genotype 3a protease
  Ki: 0.02 nM

## CC(C)(C)[C@@H]1NC(=O)O[C@@H]2C[C@@H]3C[C@@H]3[C@H]2CCCCC(F)(F)c2nc3cc(F)c(F)cc3nc2O[C@@H]2C[C@@H](C(=O)N[C@]3(C(=O)NS(=O)(=O)C4CC4)C[C@H]3C(F)F)N(C2)C1=O (racemic) [Example 15, (1aS,2aR,6S,9S,11R,23aR,23bS)-6-tert-butyl-N-[(1R,2R)-1-[(cyclopropylsulfonyl)carbamoyl]-2-(difluoromethyl)cyclopropyl]-15,16,19,19-tetrafluoro-4,7-dioxo-1a,2,2a,4,5,6,7,10,11,19,20,21,22,23,23a,23b-hexadecahydro-1H,9H-8,11-methanocyclopropa[4′,5′]cyclopenta[1′,2′:18,19][1,10,3,6]dioxadiazacyclononadecino[11,12-b]quinoxaline-9-carboxamide]
NS3 genotype 1b protease
  Ki: 0.03 nM
[1]
  EC50: 3.4 nM
[2]
  EC50: 11 nM
NS3 genotype 3a protease
  Ki: 0.05 nM

## COc1ccc2nc3c(nc2c1)O[C@@H]1C[C@@H](C(=O)N[C@]2(C(=O)NS(=O)(=O)C4CC4)C[C@H]2C(F)F)N(C1)C(=O)[C@H](C(C)(C)C)NC(=O)O[C@@H]1C[C@@H]2C[C@@H]2[C@H]1CCCCC3 [Example 1, (1aS,2aR,6S,9S,11R,23aR,23bS)-6-tert-butyl-N-[(1R,2R)-1-[(cyclopropylsulfonyl)carbamoyl]-2-(difluoromethyl)cyclopropyl]-15-methoxy-4,7-dioxo-1a,2,2a,4,5,6,7,10,11,19,20,21,22,23,23a,23b-hexadecahydro-1H,9H-8,11-methanocyclopropa[4′,5′]cyclopenta[1′,2′:18,19][1,10,3,6]dioxadiazacyclononadecino[11,12-b]quinoxaline-9-carboxamide]
NS3 genotype 1b protease
  Ki: 0.02 nM
[1]
  EC50: 0.99 nM
[2]
  EC50: 7.1 nM
NS3 genotype 3a protease
  Ki: 0.03 nM

## COc1ccc2nc3c(nc2c1)O[C@@H]1C[C@@H](C(=O)N[C@]2(C(=O)NS(=O)(=O)C4(C)CC4)C[C@H]2C(F)F)N(C1)C(=O)[C@H](C(C)(C)C)NC(=O)O[C@@H]1C[C@@H]2C[C@@H]2[C@H]1CCCCC3 [Example 2, (1aS,2aR,6S,9S,11R,23aR,23bS)-6-tert-butyl-N-[(1R,2R)-2-(difluoromethyl)-1-{[(1-methylcyclopropyl)sulfonyl]carbamoyl}cyclopropyl]-15-methoxy-4,7-dioxo-1a,2,2a,4,5,6,7,10,11,19,20,21,22,23,23a,23b-hexadecahydro-1H,9H-8,11-methanocyclopropa[4′,5′]cyclopenta[1′,2′18,19][1,10,3,6]dioxadiazacyclononadecino[11,12-b]quinoxaline-9-carboxamide]
NS3 genotype 1b protease
  Ki: 0.02 nM
[1]
  EC50: 1 nM
[2]
  EC50: 5.1 nM
NS3 genotype 3a protease
  Ki: 0.04 nM

## COc1ccc2nc3c(nc2c1)O[C@@H]1C[C@@H](C(=O)N[C@]2(C(=O)NS(=O)(=O)C4CC4)C[C@H]2CC(F)F)N(C1)C(=O)[C@H](C(C)(C)C)NC(=O)O[C@@H]1C[C@@H]2C[C@@H]2[C@H]1CCCCC3 [Example 3, (1aS,2aR,6S,9S,11R,23aR,23bS)-6-tert-butyl-N-[(1R,2S)-1-[(cyclopropylsulfonyl)carbamoyl]-2-(2,2-difluoroethyl)cyclopropyl]-15-methoxy-4,7-dioxo-1a,2,2a,4,5,6,7,10,11,19,20,21,22,23,23a,23b-hexadecahydro-1H,9H-8,11-methanocyclopropa[4′,5′]cyclopenta[1′,2′:18,19][1,10,3,6]dioxadiazacyclononadecino[11,12-b]quinoxaline-9-carboxamide]
NS3 genotype 1b protease
  Ki: 0.03 nM
[1]
  EC50: 3.2 nM
[2]
  EC50: 67 nM
NS3 genotype 3a protease
  Ki: 0.21 nM

## COc1ccc2nc3c(nc2c1)O[C@@H]1C[C@@H](C(=O)N[C@]2(C(=O)NS(=O)(=O)C4CC4)C[C@H]2C(F)F)N(C1)C(=O)[C@H](C(C)(C)C)NC(=O)O[C@@H]1[C@H]2CC[C@H](C2)[C@H]1CCCCC3 [Example 4, (1R,4S,4aR,8S,11S,13R,25aR)-8-tert-butyl-N-[(1R,2R)-1-[(cyclopropylsulfonyl)carbamoyl]-2-(difluoromethyl)cyclopropyl]-17-methoxy-6,9-dioxo-2,3,4,4a,6,7,8,9,12,13,21,22,23,24,25,25a-hexadecahydro-1H,11H-1, 4:10,13-dimethanoquinoxalino[2,3-k][1,10,3,6]benzodioxadiazacyclononadecine-11-carboxamide]
NS3 genotype 1b protease
  Ki: 0.02 nM
[1]
  EC50: 2.6 nM
[2]
  EC50: 63 nM
NS3 genotype 3a protease
  Ki: 0.21 nM
